Results on three compounds are retold here after PMC9299122, “Terpene synthases in cucumber (Cucumis sativus) and their contribution to herbivore‐induced volatile terpenoid emission” (The New Phytologist, 2021).

Common to all, as to assay: product formation, stir-bar GC-MS, recombinant E. coli protein
Holding throughout (type): cell-based

For assay [1], the target named is T1, CsTPS24 (Cucumis sativus, UniProt Q9FRX5).
T1 construct: gene CsKS1; full-length cDNA in pACYCDuet, E. coli BL21(DE3); gene on chromosome VII; predicted plastid transit peptide
T1 sequence (Q9FRX5 1-785): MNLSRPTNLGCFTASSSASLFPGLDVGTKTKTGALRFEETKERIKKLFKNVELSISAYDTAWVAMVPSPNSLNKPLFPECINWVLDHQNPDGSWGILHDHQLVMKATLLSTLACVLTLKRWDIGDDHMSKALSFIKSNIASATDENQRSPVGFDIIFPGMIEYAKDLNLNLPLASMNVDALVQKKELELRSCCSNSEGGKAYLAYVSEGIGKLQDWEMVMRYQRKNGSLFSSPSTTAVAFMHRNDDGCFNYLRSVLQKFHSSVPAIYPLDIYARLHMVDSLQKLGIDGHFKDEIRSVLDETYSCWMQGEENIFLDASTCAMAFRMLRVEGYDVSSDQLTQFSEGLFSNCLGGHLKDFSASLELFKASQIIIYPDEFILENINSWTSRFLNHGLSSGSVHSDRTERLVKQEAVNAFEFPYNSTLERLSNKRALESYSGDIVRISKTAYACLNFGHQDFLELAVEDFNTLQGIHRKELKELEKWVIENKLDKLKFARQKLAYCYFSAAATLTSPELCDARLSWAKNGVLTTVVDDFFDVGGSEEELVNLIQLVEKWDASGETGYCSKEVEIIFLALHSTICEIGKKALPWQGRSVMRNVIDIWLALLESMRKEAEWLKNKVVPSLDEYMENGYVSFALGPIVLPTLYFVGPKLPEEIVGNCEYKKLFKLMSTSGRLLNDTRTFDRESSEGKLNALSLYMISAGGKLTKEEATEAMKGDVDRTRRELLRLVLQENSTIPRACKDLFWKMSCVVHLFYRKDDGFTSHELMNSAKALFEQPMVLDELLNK
Particulars: 30 °C, 60 min.

Assay [2] addresses T2, CsTPS19 (Cucumis sativus, UniProt A0A0A0L6G4).
T2 construct: gene Csa_3G095040; full-length cDNA in pACYCDuet, E. coli BL21(DE3); cytosolic
The conditions noted are these: 30 °C, 60 min; 10 µM substrate.

Assay [3] addresses T3, CsTPS14 (Cucumis sativus, UniProt A0A0A0L1X6).
T3 construct: gene Csa_3G039850; full-length cDNA in pACYCDuet, E. coli BL21(DE3); no targeting peptide predicted
T3 sequence (A0A0A0L1X6 1-562): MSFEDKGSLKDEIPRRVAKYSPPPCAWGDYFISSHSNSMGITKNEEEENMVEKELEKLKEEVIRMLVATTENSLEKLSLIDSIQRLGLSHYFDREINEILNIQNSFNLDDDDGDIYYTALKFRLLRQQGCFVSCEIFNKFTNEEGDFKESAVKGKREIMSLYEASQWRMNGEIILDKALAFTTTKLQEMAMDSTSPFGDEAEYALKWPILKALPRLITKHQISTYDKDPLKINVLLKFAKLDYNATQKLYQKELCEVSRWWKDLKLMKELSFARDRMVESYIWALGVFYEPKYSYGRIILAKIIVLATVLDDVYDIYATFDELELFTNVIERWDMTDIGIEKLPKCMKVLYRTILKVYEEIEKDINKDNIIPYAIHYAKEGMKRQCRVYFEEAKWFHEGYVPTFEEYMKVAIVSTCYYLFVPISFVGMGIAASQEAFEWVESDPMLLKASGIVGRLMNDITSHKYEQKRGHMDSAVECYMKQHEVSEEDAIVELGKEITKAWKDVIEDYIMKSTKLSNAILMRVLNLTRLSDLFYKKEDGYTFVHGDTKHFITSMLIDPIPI
The conditions noted are these: 30 °C, 60 min; 10 µM substrate.

Assay [4] deals with T4, CsTPS12 (Cucumis sativus, UniProt A0A0A0LN25).
T4 construct: gene Csa_2G427840; full-length cDNA in pACYCDuet, E. coli BL21(DE3); no targeting peptide predicted
T4 sequence (A0A0A0LN25 1-565): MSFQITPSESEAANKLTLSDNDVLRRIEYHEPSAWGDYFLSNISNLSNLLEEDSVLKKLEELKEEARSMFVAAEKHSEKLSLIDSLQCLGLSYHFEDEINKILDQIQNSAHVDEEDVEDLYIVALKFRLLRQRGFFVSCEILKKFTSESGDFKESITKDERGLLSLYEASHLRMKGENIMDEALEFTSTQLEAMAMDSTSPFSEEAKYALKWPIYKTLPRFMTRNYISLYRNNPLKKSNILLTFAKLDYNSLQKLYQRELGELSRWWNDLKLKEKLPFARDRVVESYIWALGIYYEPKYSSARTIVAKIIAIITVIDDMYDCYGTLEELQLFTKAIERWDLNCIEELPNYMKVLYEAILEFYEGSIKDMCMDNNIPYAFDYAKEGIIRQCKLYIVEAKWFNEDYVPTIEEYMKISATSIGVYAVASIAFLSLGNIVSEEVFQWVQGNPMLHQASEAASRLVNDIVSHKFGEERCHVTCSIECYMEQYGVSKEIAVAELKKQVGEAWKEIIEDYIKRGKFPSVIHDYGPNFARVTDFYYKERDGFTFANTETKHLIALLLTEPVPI
Particulars: 30 °C, 60 min; 10 µM substrate.

The target of assay [5] is T5, CsTPS22 (Cucumis sativus, UniProt A0A0A0L2I8).
T5 construct: gene Csa_3G097540; full-length cDNA in pACYCDuet, E. coli BL21(DE3)
T5 sequence (A0A0A0L2I8 1-558): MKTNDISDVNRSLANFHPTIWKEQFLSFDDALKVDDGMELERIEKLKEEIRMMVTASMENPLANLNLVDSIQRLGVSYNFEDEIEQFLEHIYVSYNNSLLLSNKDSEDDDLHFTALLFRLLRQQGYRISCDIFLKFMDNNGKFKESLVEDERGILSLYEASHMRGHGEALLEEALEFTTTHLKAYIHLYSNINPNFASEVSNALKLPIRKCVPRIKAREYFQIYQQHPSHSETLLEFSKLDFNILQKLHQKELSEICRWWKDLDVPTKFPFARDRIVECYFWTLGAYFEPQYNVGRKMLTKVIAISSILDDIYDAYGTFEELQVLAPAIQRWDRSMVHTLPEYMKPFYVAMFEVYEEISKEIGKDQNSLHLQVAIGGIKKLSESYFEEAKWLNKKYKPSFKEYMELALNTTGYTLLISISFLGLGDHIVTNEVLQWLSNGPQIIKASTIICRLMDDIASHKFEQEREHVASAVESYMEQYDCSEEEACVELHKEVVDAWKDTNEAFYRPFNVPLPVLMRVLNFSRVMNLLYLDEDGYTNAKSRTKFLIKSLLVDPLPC
The conditions noted are these: 30 °C, 60 min; 10 µM substrate.

The target of assay [6] is T6, CsTPS15 (Cucumis sativus, UniProt A0A0A0L782).
T6 construct: gene Csa_3G040850; full-length cDNA in pACYCDuet, E. coli BL21(DE3); predicted plastid transit peptide
T6 sequence (A0A0A0L782 1-568): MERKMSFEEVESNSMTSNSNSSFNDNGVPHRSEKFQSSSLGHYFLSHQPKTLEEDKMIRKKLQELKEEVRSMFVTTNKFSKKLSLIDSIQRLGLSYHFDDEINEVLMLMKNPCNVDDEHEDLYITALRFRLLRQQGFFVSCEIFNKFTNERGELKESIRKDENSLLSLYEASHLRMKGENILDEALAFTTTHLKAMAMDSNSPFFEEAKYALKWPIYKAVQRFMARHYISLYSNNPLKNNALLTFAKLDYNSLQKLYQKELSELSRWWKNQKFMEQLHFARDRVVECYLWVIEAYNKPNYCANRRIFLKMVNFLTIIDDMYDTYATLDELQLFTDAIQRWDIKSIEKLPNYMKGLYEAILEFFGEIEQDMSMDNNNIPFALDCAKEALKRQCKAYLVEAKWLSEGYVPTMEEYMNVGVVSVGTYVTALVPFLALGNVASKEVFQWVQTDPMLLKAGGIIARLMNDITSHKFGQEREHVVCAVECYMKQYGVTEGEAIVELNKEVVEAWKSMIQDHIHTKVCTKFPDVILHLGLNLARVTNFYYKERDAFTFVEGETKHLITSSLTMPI
The conditions noted are these: 30 °C, 60 min; 10 µM substrate.

The target in assay [7] is T7, CsTPS11 (Cucumis sativus, UniProt A0A0A0LMX2).
T7 construct: gene Csa_2G299920; full-length cDNA in pACYCDuet, E. coli BL21(DE3); predicted plastid transit peptide
T7 sequence (A0A0A0LMX2 1-474): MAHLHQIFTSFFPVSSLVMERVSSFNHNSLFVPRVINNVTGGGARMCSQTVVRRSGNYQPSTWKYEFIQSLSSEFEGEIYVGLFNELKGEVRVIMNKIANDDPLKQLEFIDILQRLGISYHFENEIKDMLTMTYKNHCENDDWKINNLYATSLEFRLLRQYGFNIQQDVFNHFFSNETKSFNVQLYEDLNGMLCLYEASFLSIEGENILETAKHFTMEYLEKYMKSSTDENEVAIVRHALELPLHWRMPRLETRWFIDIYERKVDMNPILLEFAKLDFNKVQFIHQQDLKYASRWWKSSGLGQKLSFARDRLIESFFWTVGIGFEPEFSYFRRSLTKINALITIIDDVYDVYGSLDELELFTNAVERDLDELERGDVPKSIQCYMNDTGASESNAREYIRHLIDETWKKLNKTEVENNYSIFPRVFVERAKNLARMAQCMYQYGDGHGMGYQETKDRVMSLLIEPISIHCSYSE
Particulars: 30 °C, 60 min; 10 µM substrate.

T2 sequence (A0A0A0L6G4 entry or part of it): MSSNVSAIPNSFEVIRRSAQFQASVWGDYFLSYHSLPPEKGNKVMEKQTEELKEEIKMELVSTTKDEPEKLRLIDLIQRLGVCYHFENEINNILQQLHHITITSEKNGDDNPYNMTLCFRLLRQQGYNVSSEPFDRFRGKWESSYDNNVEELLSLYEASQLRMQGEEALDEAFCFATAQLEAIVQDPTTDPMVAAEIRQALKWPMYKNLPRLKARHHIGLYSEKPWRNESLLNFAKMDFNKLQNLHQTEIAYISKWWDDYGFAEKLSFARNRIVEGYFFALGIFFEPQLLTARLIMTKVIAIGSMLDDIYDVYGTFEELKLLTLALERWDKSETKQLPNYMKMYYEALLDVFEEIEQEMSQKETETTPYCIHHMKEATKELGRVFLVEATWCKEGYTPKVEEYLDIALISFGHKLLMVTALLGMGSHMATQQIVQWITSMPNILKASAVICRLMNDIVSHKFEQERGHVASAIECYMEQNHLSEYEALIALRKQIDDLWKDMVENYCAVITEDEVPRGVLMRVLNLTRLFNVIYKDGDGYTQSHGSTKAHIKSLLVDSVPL

On to `CC(C)=CCC/C(C)=C/CC/C(C)=C/COP(=O)(O)OP(=O)(O)O` [FPP], for which the “product formation, stir-bar GC-MS, recombinant E. coli protein” value (shortened to “product formation, stir-bar GC-MS”) in assay [1] (10 µM substrate) is “both enzymes produced (E)‐nerolidol from FPP”; in assay [2], “CsTPS19 predominantly catalysed the formation of (E,E)‐α‐farnesene from FPP”; in assay [3], “CsTPS12, CsTPS14 and CsTPS17, which all catalysed the formation of (E)‐β‐farnesene”; in assay [4] it was “CsTPS12, CsTPS14 and CsTPS17, which all catalysed the formation of (E)‐β‐farnesene”; in assay [5], “the major products of CsTPS22 were (E)‐nerolidol and cadinol”.
Consider `CC(C)=CCC/C(C)=C/CC/C(C)=C/CC/C(C)=C/COP(=O)(O)OP(=O)(O)O` [GGPP], for which, in assay [1], the “product formation, stir-bar GC-MS” value was “only CsTPS24 accepted GGPP to produce geranyl linalool”.
`CC(C)=CCC/C(C)=C/COP(=O)(O)OP(=O)(O)O` [GPP]: the “product formation, stir-bar GC-MS” value in assay [2] is “CsTPS19 which efficiently catalysed the formation of (E)‐β‐ocimene, myrcene and linalool from GPP”; in assay [6], “CsTPS11 and CsTPS15 both catalysed the formation of myrcene, limonene”; in assay [7], “CsTPS11 and CsTPS15 both catalysed the formation of myrcene, limonene”.
